Test results as given in patent US20230203098A1, “HUMAN TRANSFERRIN RECEPTOR BINDING PEPTIDE” (priority 2020, published 2023).
pKd: −log10 of the molar value. Like-named read-outs stand apart in the source and are kept apart here. Where a SMILES comes first, the peptide text is derived from it. Bridges are numbered along the chain shown (N, C = ends). [ ]: non-standard residue; d: D form. The star is where a group is joined. X2 = O=C(O)c1cc(C(=O)*)ccc1-c1c2ccc(=O)cc-2oc2cc(O)ccc12; PEG12 = NCCOCCOCCOCCOCCOCCOCCOCCOCCOCCOCCOCCOCCC(=O)O; NMePhe(3-Cl) = CN[C@@H](Cc1cccc(Cl)c1)C(=O)O; NMeW = CN[C@@H](Cc1c[nH]c2ccccc12)C(=O)O

Molecular target: transferrin receptor (hTfR) (Homo sapiens, UniProt P02786)
Sequence (P02786 whole entry): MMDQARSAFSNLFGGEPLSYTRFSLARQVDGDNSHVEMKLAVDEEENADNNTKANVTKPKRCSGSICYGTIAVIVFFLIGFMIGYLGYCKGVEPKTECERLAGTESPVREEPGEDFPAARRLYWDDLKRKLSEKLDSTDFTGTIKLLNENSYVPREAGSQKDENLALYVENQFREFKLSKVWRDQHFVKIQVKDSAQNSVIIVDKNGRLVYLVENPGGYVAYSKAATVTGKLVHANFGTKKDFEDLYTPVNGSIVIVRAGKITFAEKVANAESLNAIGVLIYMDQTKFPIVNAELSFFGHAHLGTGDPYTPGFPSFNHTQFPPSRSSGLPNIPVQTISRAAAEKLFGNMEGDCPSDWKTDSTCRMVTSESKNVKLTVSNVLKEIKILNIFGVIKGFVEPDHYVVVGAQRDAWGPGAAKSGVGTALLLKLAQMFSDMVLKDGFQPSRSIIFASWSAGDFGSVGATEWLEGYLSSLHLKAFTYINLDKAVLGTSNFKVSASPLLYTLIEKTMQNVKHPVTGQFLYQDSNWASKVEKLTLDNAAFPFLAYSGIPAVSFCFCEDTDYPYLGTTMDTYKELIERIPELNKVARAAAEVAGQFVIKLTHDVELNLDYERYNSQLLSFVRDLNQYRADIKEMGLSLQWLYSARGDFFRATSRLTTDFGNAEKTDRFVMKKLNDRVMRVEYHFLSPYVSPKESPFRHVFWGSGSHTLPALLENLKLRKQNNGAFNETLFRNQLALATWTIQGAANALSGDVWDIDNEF
Assay: Intermolecular interaction evaluation test between transferrin receptor (hTfR) and peptide by surface plasmon resonance (SPR)
Assay type: binding
How it was run: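 Receptor was Ni-captured and EDC/NHS-fixed on an NTA chip; running buffer HEPES pH 8.0 with NaCl, Tween 20, BSA and 1.0% DMSO.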

[1] = hTfR binding by SPR, hTfR No. 894 variant peptides, linker-added peptides and payload conjugates (Table 2), read-out: KD value obtained from the SPR measurement
[2] = SPR, peptides, linker-added peptides and FITC conjugates, Patent ID 203-230, read-out: KD

Structure (SMILES) | pKd [1] | pKd [2]
CC[C@H](C)[C@@H]1NC(=O)[C@H](Cc2ccc(O)cc2)NC(=O)[C@H](Cc2ccc(O)cc2)NC(=O)[C@H](CC(N)=O)NC(=O)[C@H](Cc2c[nH]c3ccccc23)NC(=O)[C@H](C(C)C)NC(=O)[C@H](Cc2ccccc2)N(C)C(=O)[C@H](C(C)C)NC(=O)[C@H](C)NC(=O)CSC[C@@H](C(=O)NCC(=O)NCC(=O)N[C@@H](CO)C(=O)N[C@@H](CO)C(=O)N[C@@H](CCCCNC(=O)C2CCC(CN3C(=O)C=CC3=O)CC2)C(N)=O)NC(=O)[C@H](Cc2ccc(O)cc2)N(C)C(=O)[C@H](Cc2ccc(O)cc2)NC(=O)[C@H](CCCNC(=N)N)NC(=O)[C@H](CCCNC(=N)N)NC(=O)[C@H]([C@@H](C)CC)NC1=O (stereo partly shown) [compound 193] | 7.00 to 9.00 | 
CC[C@H](C)[C@@H]1NC(=O)[C@H](Cc2ccc(O)cc2)NC(=O)[C@H](Cc2ccc(O)cc2)NC(=O)[C@H](CC(N)=O)NC(=O)[C@H](Cc2c[nH]c3ccccc23)NC(=O)[C@H](C(C)C)NC(=O)[C@H](Cc2ccccc2)N(C)C(=O)[C@H](C(C)C)NC(=O)[C@H](C)NC(=O)CSC[C@@H](C(=O)NCC(=O)NCC(=O)N[C@@H](CO)C(=O)N[C@@H](CCCCNC(=O)C2CCC(CN3C(=O)C=CC3=O)CC2)C(N)=O)NC(=O)[C@H](Cc2ccc(O)cc2)N(C)C(=O)[C@H](Cc2ccc(O)cc2)NC(=O)[C@H](CCCNC(=N)N)NC(=O)[C@H](CCCNC(=N)N)NC(=O)[C@H]([C@@H](C)CC)NC1=O (stereo partly shown) [compound 194] | 7.00 to 9.00 | 
CC[C@H](C)[C@@H]1NC(=O)[C@H](Cc2ccc(O)cc2)NC(=O)[C@H](Cc2ccc(O)cc2)NC(=O)[C@H](CC(N)=O)NC(=O)[C@H](Cc2c[nH]c3ccccc23)NC(=O)[C@H](C(C)C)NC(=O)[C@H](Cc2ccccc2)N(C)C(=O)[C@H](C(C)C)NC(=O)[C@H](C)NC(=O)CSC[C@@H](C(=O)NCC(=O)NCC(=O)N[C@@H](CCCCNC(=O)C2CCC(CN3C(=O)C=CC3=O)CC2)C(N)=O)NC(=O)[C@H](Cc2ccc(O)cc2)N(C)C(=O)[C@H](Cc2ccc(O)cc2)NC(=O)[C@H](CCCNC(=N)N)NC(=O)[C@H](CCCNC(=N)N)NC(=O)[C@H]([C@@H](C)CC)NC1=O (stereo partly shown) [compound 195] | 7.00 to 9.00 | 
CC[C@H](C)[C@@H]1NC(=O)[C@H](Cc2ccc(O)cc2)NC(=O)[C@H](Cc2ccc(O)cc2)NC(=O)[C@H](CC(N)=O)NC(=O)[C@H](Cc2c[nH]c3ccccc23)NC(=O)[C@H](C(C)C)NC(=O)[C@H](Cc2ccccc2)N(C)C(=O)[C@H](C(C)C)NC(=O)[C@H](C)NC(=O)CSC[C@@H](C(=O)NCC(=O)NCC(=O)N[C@@H](CO)C(=O)NCC(=O)N[C@@H](CO)C(=O)N[C@@H](CO)C(=O)NCC(=O)NCC(=O)N[C@@H](CO)C(=O)NCC(=O)N[C@@H](CO)C(=O)N[C@@H](CO)C(=O)N[C@@H](CCCCNC(=O)C2CCC(CN3C(=O)C=CC3=O)CC2)C(N)=O)NC(=O)[C@H](Cc2ccc(O)cc2)N(C)C(=O)[C@H](Cc2ccc(O)cc2)NC(=O)[C@H](CCCNC(=N)N)NC(=O)[C@H](CCCNC(=N)N)NC(=O)[C@H]([C@@H](C)CC)NC1=O (stereo partly shown) [compound 196] | 7.00 to 9.00 | 
CC[C@H](C)[C@@H]1NC(=O)[C@H](Cc2ccc(O)cc2)NC(=O)[C@H](Cc2ccc(O)cc2)NC(=O)[C@H](CC(N)=O)NC(=O)[C@H](Cc2c[nH]c3ccccc23)N(C)C(=O)[C@H](C(C)C)NC(=O)[C@H](Cc2ccccc2)NC(=O)[C@H](C(C)C)NC(=O)[C@H](C)NC(=O)CSC[C@@H](C(=O)NCC(=O)N[C@@H](CO)C(=O)N[C@@H](CO)C(=O)NCC(=O)N[C@@H](CO)C(=O)N[C@@H](CO)C(=O)N[C@@H](CCCCNC(=O)C2CCC(CN3C(=O)C=CC3=O)CC2)C(N)=O)NC(=O)[C@H](Cc2ccc(O)cc2)N(C)C(=O)[C@H](Cc2ccc(O)cc2)NC(=O)[C@H](CCCNC(=N)N)NC(=O)[C@H](CCCNC(=N)N)NC(=O)[C@H]([C@@H](C)CC)NC1=O (stereo partly shown) [compound 197] | 7.00 to 9.00 | 
CC[C@H](C)[C@@H]1NC(=O)[C@H](Cc2ccc(O)cc2)NC(=O)[C@H](Cc2ccc(O)cc2)NC(=O)[C@H](CC(N)=O)NC(=O)[C@H](Cc2c[nH]c3ccccc23)N(C)C(=O)[C@H](C(C)C)NC(=O)[C@H](Cc2ccccc2)N(C)C(=O)[C@H](C(C)C)NC(=O)[C@H](C)NC(=O)CSC[C@@H](C(=O)NCC(=O)NCC(=O)N[C@@H](CCCNC(=N)N)C(=O)NCC(=O)N[C@@H](CCCNC(=N)N)C(=O)N[C@@H](CO)C(=O)N[C@@H](CCCCNC(=O)C2CCC(CN3C(=O)C=CC3=O)CC2)C(N)=O)NC(=O)[C@H](Cc2ccc(O)cc2)N(C)C(=O)[C@H](Cc2ccc(O)cc2)NC(=O)[C@H](CCCNC(=N)N)NC(=O)[C@H](CCCNC(=N)N)NC(=O)[C@H]([C@@H](C)CC)NC1=O (stereo partly shown) [compound 198] | 7.00 to 9.00 | 
CC[C@H](C)[C@@H]1NC(=O)[C@H](Cc2ccc(O)cc2)NC(=O)[C@H](Cc2ccc(O)cc2)NC(=O)[C@H](CC(N)=O)NC(=O)[C@H](Cc2c[nH]c3ccccc23)N(C)C(=O)[C@H](C(C)C)NC(=O)[C@H](Cc2ccccc2)N(C)C(=O)[C@H](C(C)C)NC(=O)[C@H](C)NC(=O)CSC[C@@H](C(=O)NCC(=O)NCC(=O)N[C@@H](CCCNC(=N)N)C(=O)N[C@@H](CO)C(=O)N[C@@H](CCC(=O)O)C(=O)N[C@@H](CO)C(=O)N[C@@H](CCCCNC(=O)C2CCC(CN3C(=O)C=CC3=O)CC2)C(N)=O)NC(=O)[C@H](Cc2ccc(O)cc2)N(C)C(=O)[C@H](Cc2ccc(O)cc2)NC(=O)[C@H](CCCNC(=N)N)NC(=O)[C@H](CCCNC(=N)N)NC(=O)[C@H]([C@@H](C)CC)NC1=O (stereo partly shown) [compound 199] | 7.00 to 9.00 | 
CC[C@H](C)[C@@H]1NC(=O)[C@H](Cc2ccc(OC)cc2)NC(=O)[C@H](Cc2ccc(O)cc2)NC(=O)[C@H](CC(N)=O)NC(=O)[C@H](Cc2c[nH]c3ccccc23)N(C)C(=O)[C@H](C(C)C)NC(=O)[C@H](Cc2cccc(Cl)c2)N(C)C(=O)[C@H](CCC(=O)O)NC(=O)[C@H](C)NC(=O)CSC[C@@H](C(N)=O)NC(=O)[C@H](CO)NC(=O)[C@H]([C@@H](C)CC)NC1=O [compound 203] ({CH2CO}-AE[NMePhe(3-Cl)]V[NMeW]NYY(Me)IISC-NH2; thioether N-12) |  | 7.00 to 9.00
CC[C@H](C)[C@@H]1NC(=O)[C@H](Cc2ccc(O)cc2)NC(=O)[C@H](Cc2ccc(O)cc2)NC(=O)[C@H](CC(N)=O)NC(=O)[C@H](Cc2c[nH]c3ccccc23)NC(=O)[C@H](C(C)C)NC(=O)[C@H](Cc2ccccc2)NC(=O)[C@H](C(C)C)NC(=O)[C@H](C)NC(=O)CSC[C@@H](C(=O)NCCOCCOCCOCCOCCOCCOCCOCCOCCOCCOCCOCCOCCC(=O)N[C@@H](CCCCNC(=O)c2ccc(-c3c4ccc(=O)cc-4oc4cc(O)ccc34)c(C(=O)O)c2)C(N)=O)NC(=O)[C@H](Cc2c[nH]cn2)NC(=O)[C@H](C(C)C)NC1=O [compound 204] ({CH2CO}-AVFVWNYYIVHC[PEG12]K(X2)-NH2; thioether N-12) |  | 6.00 to 7.00
CC[C@H](C)[C@@H]1NC(=O)[C@H](Cc2ccc(OC)cc2)NC(=O)[C@H](Cc2ccc(O)cc2)NC(=O)[C@H](CC(N)=O)NC(=O)[C@H](Cc2c[nH]c3ccccc23)N(C)C(=O)[C@H](C(C)C)NC(=O)[C@H](Cc2cccc(Cl)c2)N(C)C(=O)[C@H](CCC(=O)O)NC(=O)[C@H](C)NC(=O)CSC[C@@H](C(N)=O)NC(=O)[C@H](CCC(=O)O)NC(=O)[C@H](CCCNC(=N)N)NC(=O)[C@@H]2CCCN2C(=O)[C@H](C(C)C)NC1=O [compound 206] ({CH2CO}-AE[NMePhe(3-Cl)]V[NMeW]NYY(Me)IVPREC-NH2; thioether N-14) |  | 7.00 to 9.00
